Assay results taken from patent US9554990B2, “Cholecystokinin secretion-promoting composition” (J-OIL MILLS, INC., priority 2012, dated 2017).

How the values were obtained:
[1] = test system: Mouse intestinal CCK-producing cell line STC-1; assay: Confirmation test of CCK secretion-stimulating activity (CCK in supernatant, enzyme immunoassay); type: cell-based; design: key to CCK secretion-promoting activity Significant difference from vehicle Group 3 / CCK secretion-promoting activity Significant difference from vehicle Group 4 / CCK secretion-promoting activity Significant difference from vehicle Group 1 / CCK secretion-promoting activity Significant difference from vehicle Group 5: *: A significant difference (P < 0.05) was found; —: No significant difference was found; details: for CCK secretion-promoting activity Significant difference from vehicle Group 1: experimental group 1; for CCK secretion-promoting activity Significant difference from vehicle Group 3: experimental group 3; for CCK secretion-promoting activity Significant difference from vehicle Group 4: experimental group 4; for CCK secretion-stimulating activity (in words): single test material
Protocol: As a condition for maximizing the secretion amount of CCK in a cell test system, 70 mM KCl (positive control) causing hormone release by depolarization was prepared.
Since the number of materials that can be tested at once is restricted, the test materials were divided into five groups as shown in Table 1. In order to solve the discontinuity between experimental groups, every group included trans,trans-2,4-decadienal. Each test material was tested three times, and the average value of the results was calculated.
The test materials were each dissolved in ethanol, and each solution was diluted with Hepes buffer (140 mM NaCl, 4.5 mM KCl, 20 mM Hepes, 1.2 mM CaCl2, 1.2 mM MgCl2, and 10 mM D-glucose, pH 7.4) to give a 0.1 vol % ethanol solution, which was used as the evaluation solution.
Mouse intestinal CCK-producing cell line STC-1 was cultured in a 48-well plate for two to three days until subconfluent in a Dulbecco's modified Eagle's medium containing 10% bovine fetal serum at 37° C. in the presence of 5% CO2. After the wells were washed with Hepes buffer, 100 μL of the evaluation solution containing 100 μM of a test material was added to a well, followed by incubation at 37° C. for 60 minutes. The supernatant was collected and was centrifuged (800×g, 5 min, 4° C.) to precipitate the exfoliated cells. The resulting supernatant (80 μL) was collected and was cryopreserved. The concentration of CCK in the supernatant was measured with a commercially available enzyme immunoassay kit (manufactured by Phoenix Pharmaceuticals, Inc.).
In order to investigate the change in the secretion amount of CCK by addition of a test material to the cells in a general condition, a value obtained by subtracting the measured value of the vehicle from the measured value of a sample was used as the true value, and the score of the CCK secretion-stimulating activity was determined by dividing the true value by the value of 70 mM KCl as a control. The variance was analyzed for each experimental group. The difference in variance between an experimental group and the vehicle was examined for determining whether there was a significant difference (P<0.05). […]

[2] = swallowing; cited from earlier work
[3] = Table 2A, 100 μM test material, 60 minutes, STC-1, (sample minus vehicle) divided by value of 70 mM KCl control
[4] = Table 2B, 100 μM test material, 60 minutes, STC-1, (sample minus vehicle) divided by value of 70 mM KCl control
[5] = Table 3, single ingredient (100 μM) or control, relative to 70 mM KCl

[Cl-].[K+] [70 mM KCl, KCl]
CCK secretion-promoting activity Score [1, 3]: 1 | CCK secretion-promoting activity Score [1, 4]: 1 | CCK secretion-promoting activity Score [1, 5]: 1

CCCC=O.CCCC=O [Comparative Example 1, butanal (butyraldehyde)]
CCK secretion-promoting activity Score [1, 4]: 0.017 | CCK secretion-promoting activity Significant difference from vehicle Group 1 ([1]; Table 2B, 100 μM): —

CC/C=C\CCC=O [Comparative Example 11, cis-4-heptenal]
CCK secretion-promoting activity Score [1, 4]: −0.001

C/C=C/C=C/C=O [Example 1, trans,trans-2,4-hexadienal]
CCK secretion-promoting activity Score [1, 3]: 0.840 | CCK secretion-promoting activity Significant difference from vehicle Group 1 ([1]; Table 2A, 100 μM): * (A significant difference (P < 0.05) was found)

CC/C=C/C=C/C=O [Example 2, trans,trans-2,4-heptadienal]
CCK secretion-promoting activity Score [1, 3]: 0.885 | CCK secretion-promoting activity Significant difference from vehicle Group 1 ([1]; Table 2A, 100 μM): * (A significant difference (P < 0.05) was found)

CCCC/C=C/C=C/C=O [Example 3, trans,trans-2,4-nonadienal]
CCK secretion-promoting activity Score [1, 3]: 0.975 | CCK secretion-promoting activity Significant difference from vehicle Group 1 ([1]; Table 2A, 100 μM): * (A significant difference (P < 0.05) was found)

CCCCC/C=C/C=C/C=O [Example 4, trans,trans-2,4-decadienal]
CCK secretion-promoting activity Score [1, 3]: 1.088 | CCK secretion-promoting activity Significant difference from vehicle Group 1 ([1]; Table 2A, 100 μM): * (A significant difference (P < 0.05) was found) | CCK secretion-promoting activity Significant difference from vehicle Group 3 ([1]; Table 2A, 100 μM): * (A significant difference (P < 0.05) was found) | CCK secretion-promoting activity Significant difference from vehicle Group 4 ([1]; Table 2A, 100 μM): * (A significant difference (P < 0.05) was found) | CCK secretion-promoting activity Significant difference from vehicle ([1]; Table 3, single ingredient (100 μM)): * (A significant difference (P < 0.05) was found) | CCK secretion-promoting activity Score [1, 5]: 1.088 | CCK secretion-stimulating activity (in words) ([1]; STC-1): the highest

CCCCCCC/C=C/C=C/C=O [Example 5, trans,trans-2,4-dodecadienal]
CCK secretion-promoting activity Score [1, 3]: 0.720

C/C=C/C=O.C/C=C/C=O [Example 6, trans-2-butenal (crotonaldehyde)]
CCK secretion-promoting activity Score [1, 3]: 0.644 | CCK secretion-promoting activity Significant difference from vehicle Group 1 ([1]; Table 2A, 100 μM): * (A significant difference (P < 0.05) was found)

CCCC/C=C/C=O [Example 7, trans-2-heptenal]
CCK secretion-promoting activity Score [1, 3]: 0.624 | CCK secretion-promoting activity Significant difference from vehicle Group 1 ([1]; Table 2A, 100 μM): * (A significant difference (P < 0.05) was found)

CCCCC/C=C/C=O [Example 8, trans-2-octenal]
CCK secretion-promoting activity Score [1, 3]: 0.698 | CCK secretion-promoting activity Significant difference from vehicle Group 4 ([1]; Table 2A, 100 μM): * (A significant difference (P < 0.05) was found)

CCCCCC/C=C/C=O [Example 9, trans-2-nonenal]
CCK secretion-promoting activity Score [1, 3]: 0.491 | CCK secretion-promoting activity Significant difference from vehicle Group 3 ([1]; Table 2A, 100 μM): —

CCCCC/C=C/CCC=O [Example 10, trans-4-decenal]
CCK secretion-promoting activity Score [1, 3]: 0.441

CCCCC/C=C\CCC=O [Example 11, cis-4-decenal]
CCK secretion-promoting activity Score [1, 3]: 0.377 | CCK secretion-promoting activity Significant difference from vehicle Group 4 ([1]; Table 2A, 100 μM): —

C=CC(=O)O [Example 12, acrylic acid]
CCK secretion-promoting activity Score [1, 3]: 0.957 | CCK secretion-promoting activity Significant difference from vehicle Group 4 ([1]; Table 2A, 100 μM): * (A significant difference (P < 0.05) was found)

CCCCCCCC=O [compound 2, octanal]
CCK secretion-promoting activity Score [1, 4]: −0.004 | CCK secretion-promoting activity Significant difference from vehicle Group 3 ([1]; Table 2B, 100 μM): —

CCCCCCCCC=O [compound 3, nonanal]
CCK secretion-promoting activity Score [1, 4]: −0.003 | CCK secretion-promoting activity Significant difference from vehicle Group 1 ([1]; Table 2B, 100 μM): —

CCCCCCCCCC=O [compound 4, decanal]
CCK secretion-promoting activity Score [1, 4]: 0.042

CCCCCCCCCCC=O [compound 5, undecanal]
CCK secretion-promoting activity Score [1, 4]: 0.189

CCCCCCCCCCCC=O [compound 6, dodecanal]
CCK secretion-promoting activity Score [1, 4]: −0.093

CCCCCCCCCCCCC=O [compound 7, tridecanal]
CCK secretion-promoting activity Score [1, 4]: 0.049

CCCCCCC/C=C/C=O [compound 8, trans-2-decenal]
CCK secretion-promoting activity Score [1, 4]: 0.046

CCCCCCCC/C=C/C=O [compound 9, trans-2-undecenal]
CCK secretion-promoting activity Score [1, 4]: −0.137 | CCK secretion-promoting activity Significant difference from vehicle Group 3 ([1]; Table 2B, 100 μM): —

CCCCCCCCC/C=C/C=O [compound 10, trans-2-dodecenal]
CCK secretion-promoting activity Score [1, 4]: −0.319 | CCK secretion-promoting activity Significant difference from vehicle Group 3 ([1]; Table 2B, 100 μM): —

CC/C=C\CCCCC=O [compound 12, cis-6-nonenal]
CCK secretion-promoting activity Score [1, 4]: −0.648 | CCK secretion-promoting activity Significant difference from vehicle Group 3 ([1]; Table 2B, 100 μM): —

CC/C=C\CCCCCC=O [compound 13, cis-7-decenal]
CCK secretion-promoting activity Score [1, 4]: 0.274

C=CCCCCCCCCC=O [compound 14, trans-10-undecenal]
CCK secretion-promoting activity Score [1, 4]: −0.458 | CCK secretion-promoting activity Significant difference from vehicle Group 3 ([1]; Table 2B, 100 μM): —

C=CCO [compound 15, 2-propen-1-ol]
CCK secretion-promoting activity Score [1, 4]: 0.557 | CCK secretion-promoting activity Significant difference from vehicle Group 4 ([1]; Table 2B, 100 μM): —

CCCCC/C=C/CO [compound 16, trans-2-octen-1-ol]
CCK secretion-promoting activity Score [1, 4]: 0.321 | CCK secretion-promoting activity Significant difference from vehicle Group 4 ([1]; Table 2B, 100 μM): —

CCCCC/C=C\CCCO [compound 17, cis-4-decen-1-ol]
CCK secretion-promoting activity Score [1, 4]: −0.171 | CCK secretion-promoting activity Significant difference from vehicle Group 4 ([1]; Table 2B, 100 μM): —

CCCCCCCCO [compound 18, 1-octanol]
CCK secretion-promoting activity Score [1, 4]: −0.134

CCCCCCCCCCO [compound 19, n-decyl alcohol]
CCK secretion-promoting activity Score [1, 4]: 0.070

CCCCCCCCCCCCO [compound 20, dodecyl alcohol]
CCK secretion-promoting activity Score [1, 4]: −0.304

CCCCCCCCCCCCCO [compound 21, n-tridecyl alcohol]
CCK secretion-promoting activity Score [1, 4]: −0.225

CCCCCC/C=C/C(C)=O [compound 22, trans-3-decen-2-one]
CCK secretion-promoting activity Score [1, 4]: 0.169

CCCCC/C=C/C(=O)O [compound 23, trans-2-octenoic acid]
CCK secretion-promoting activity Score [1, 4]: 0.146 | CCK secretion-promoting activity Significant difference from vehicle Group 4 ([1]; Table 2B, 100 μM): —

CCCCCCCC(=O)O [compound 24, n-octanoic acid]
CCK secretion-promoting activity Score [1, 4]: −0.140

CCCCCCCCCC(=O)O [compound 25, decanoic acid]
CCK secretion-promoting activity Score [1, 4]: −0.207

CCCCCCCCCCCC(=O)O [compound 26, lauric acid]
CCK secretion-promoting activity Score [1, 4]: −0.225

CCCCCCCCCCCCC(=O)O [compound 27, n-tridecanoic acid]
CCK secretion-promoting activity Score [1, 4]: −0.234

CCCCCCCCCC [compound 28, decane]
CCK secretion-promoting activity Score [1, 4]: −0.224

C/C=C\CCCCCCC [compound 29, cis-2-decene]
CCK secretion-promoting activity Score [1, 4]: −0.208

C=CC=O [propenal]
CCK secretion-stimulating activity (in words) ([1]; STC-1): has a CCK-secreting activity | GHS class of acute toxicity [2]: class 2

trans,trans-1,9-decadiene [compound 30]
CCK secretion-promoting activity Score [1, 4]: −0.211 | CCK secretion-promoting activity Significant difference from vehicle Group 5 ([1]; Table 2B, experimental group 5, 100 μM): —
